Test results: article PMC8151276, “An Integrated Approach toward NanoBRET Tracers for Analysis of GPCR Ligand Engagement” (Molecules, 2021)

Biological target: T1, DRD2 (Homo sapiens, UniProt P14416)
T1 construct: purchased Promega (in-house HiBiT-GPCR construct library, NanoBRET)
Test: NanoBRET screen HiBiT-DRD2 in HEK293
Assay type: binding
Protocol: Each tracer candidate was screened across the entire library of HiBiT-GPCR constructs using NanoBRET as the detection modality. As depicted in Figure 4A, the specificity of interactions was evaluated through decrease in BRET due to competitive displacement of a bound tracer by excess parental compound. Each tracer was analyzed for binding to each HiBiT-GPCR fusion in the absence and in the presence of competing parental compound. Briefly, HEK293 cells were transfected with HiBiT-GPCR constructs diluted into promoterless DNA to reduce expression and maximize translocation to the cell surface. Each tracer candidate was then screened at concentrations of 1 μM and 0.1 μM across cells expressing these fusions. Cells were treated for 1.5 h with tracer either alone or in the presence of 20 μM competing parental compound (i.e., control). BRET was measured upon addition of purified LgBiT and subsequent complementation with HiBiT genetically fused to a GPCR. The specificity of interactions was assessed through a decrease in BRET signal due to competitive displacement of the bound tracer. To further gauge the robustness of these interactions, the fold response over the control (i.e., BRETtracer/BRETcontrol) was calculated. We chose a 1.5-fold response, which translates to ≥7-fold signal over noise as the minimal threshold required to score an interaction as positive.
HiBiT-GPCR DNA constructs were diluted in 10 mM Tris pH 8 to a final concentration of 0.01 μg/μL, arrayed in 96-well plates and stored at −20 °C. For transfection, HEK293 cells were suspended in Opti-MEM (without phenol red) supplemented with 2% fetal bovine serum (Seradigm) and 100 units/mL penicillin–streptomycin (Gibco) at a final concentration of 220,000 cells/mL and dispensed into white 96-well plates at 90 μL/well. Subsequent transfections and screens were carried using an Agilent Bravo Automated Liquid Handling Platform. First, the 96-well HiBiT DNA arrays were diluted 25-fold in Opti-MEM (without serum or phenol red) to a final concentration of 0.0004 μg/μL and 20 μL of the diluted DNAs were transferred into new 96-well plates. Next, promoterless carrier DNA (1 μg/μL) was diluted 25-fold (0.04 μg/μL) and then dispensed into the diluted arrays at 20 μL/well. Following brief mixing, Viafect transfection reagent (Promega) diluted 16-fold into Opti-MEM was dispensed into the plates at 40 μL/well. After mixing by pipetting, plates were incubated for 10 min on the pipetting station deck. The DNA-transfection reagent complexes were then added to plates containing cells. To facilitate the screen, 10 μL of DNA-transfection reagent complexes were added in duplicates to the top 4 and bottom 4 rows, resulting in two identical 48-well arrays per plate. Plates with transfected cells were incubated for 18–20 h at 37 °C/5% CO2. A screen of each tracer across the entire library using two different concentrations requires duplicate plates of transfected cells. Depending on the number of tracers being screened, transfections can be scaled up using the same ratios. The next day, for each tracer, four 20× screening solutions in tracer dilution buffer (Promega) were prepared: two duplicates at final concentration of 20 μM and two duplicates at a final concentration of 2 μM. […] The four resulting solutions were diluted 4-fold in Opti-MEM without serum or phenol red to generate 5× solutions (5 µM and 0.5 µM tracer +/− 100 μM competing compound). To screen the library, a BioTek MultiFlo FX liquid dispenser was used to dispense 22.5 µL of tracer solution to the top 4 rows and 22.5 µL tracer + competing compound solution to the 4 bottom rows. Plates were briefly mixed on an orbital shaker and incubated for 1.5 h at room temperature. […] Plates were briefly mixed on an orbital shaker and incubated for 15 min to allow complementation.

T1 sequence (P14416 whole entry): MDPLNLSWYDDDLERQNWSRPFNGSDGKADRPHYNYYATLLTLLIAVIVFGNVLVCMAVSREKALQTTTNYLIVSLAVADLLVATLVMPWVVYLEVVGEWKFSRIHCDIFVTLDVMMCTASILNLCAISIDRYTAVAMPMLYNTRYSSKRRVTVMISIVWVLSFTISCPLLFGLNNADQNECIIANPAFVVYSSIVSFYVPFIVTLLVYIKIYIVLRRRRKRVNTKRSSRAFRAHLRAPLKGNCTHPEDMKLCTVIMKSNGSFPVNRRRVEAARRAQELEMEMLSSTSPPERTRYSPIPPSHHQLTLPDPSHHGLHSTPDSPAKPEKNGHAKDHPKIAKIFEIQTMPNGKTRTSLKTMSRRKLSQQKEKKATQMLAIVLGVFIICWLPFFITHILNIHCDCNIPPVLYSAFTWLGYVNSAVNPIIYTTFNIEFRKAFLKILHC

| Compound | NanoBRET Fold Response (DRD2, tracer 0.1μM) | NanoBRET Fold Response (DRD2, tracer 1μM) | also measured |
| --- | --- | --- | --- |
| O=C(CCc1ccc2n1[B-](F)(F)[N+]1=C(c3ccc[nH]3)C=CC1=C2)NCc1ccc(C(=O)NCCOCCC(=O)N[C@@H]2CC[C@@]3(O)[C@H]4Cc5ccc(O)c6c5[C@@]3(CCN4CC3CC3)[C@H]2O6)cc1 [Naltrexone-3-NB590] | 0.98 | 1.36 | – |
| O=C(CCOCCOCCOCCOCCNC(=O)CCc1ccc2n1[B-](F)(F)[N+]1=C(c3ccc[nH]3)C=CC1=C2)NCCCN1CCN(C2=Nc3cc(Cl)ccc3Nc3ccccc32)CC1 [Clozapine-a-2-NB590] | – | – | NanoBRET Fold Response (DRD2, 0.1μM tracer): 2.85; NanoBRET Fold Response (DRD2, 1μM tracer): 2.37 |
| CCOC(=O)c1cc(C#N)c(N2CCC(C(=O)NS(=O)(=O)Cc3ccccc3/C=C/C(=O)NCCNC(=O)CCc3ccc4n3[B-](F)(F)[N+]3=C(c5ccc[nH]5)C=CC3=C4)CC2)nc1C [AZD1283-1-NB590] | – | – | NanoBRET Fold Response (DRD2, 0.1μM): 1.04; NanoBRET Fold Response (DRD2, 1μM): 1.08 |
| COc1ccc2[nH]c(-c3ccc(CNC(=O)CCOCCOCCOCCOCCNC(=O)CCc4ccc5n4[B-](F)(F)[N+]4=C(c6ccc[nH]6)C=CC4=C5)cc3)c(CCNC(C)=O)c2n1 [AzomelatoninICO9-2-NB590] | – | – | NanoBRET Fold Response (0.1μM tracer): 1.00; NanoBRET Fold Response (1μM tracer): 1.03 |
| CCCn1c(=O)c2[nH]c(-c3ccc(OCC(=O)NCCNC(=O)CCOCCNC(=O)c4ccc(CNC(=O)CCc5ccc6n5[B-](F)(F)[N+]5=C(c7ccc[nH]7)C=CC5=C6)cc4)cc3)nc2n(CCC)c1=O [XAC-3-NB590] | 1.17 | 1.85 | – |
| COc1ccccc1N1CCN(CCCCN2C(=O)c3ccc(CNC(=O)CCOCCNC(=O)c4ccc(CNC(=O)CCc5ccc6n5[B-](F)(F)[N+]5=C(c7ccc[nH]7)C=CC5=C6)cc4)cc3C2=O)CC1 [NAN-190-3-NB590] | 1.80 | 1.21 | – |
| CN(CCC=C1c2ccccc2CCc2ccccc21)C(=O)CCOCCOCCOCCOCCNC(=O)CCc1ccc2n1[B-](F)(F)[N+]1=C(c3ccc[nH]3)C=CC1=C2 [Amitriptyline-e-2-NB590] | – | – | NanoBRET Fold Response (tracer at 1μM): 1.34 |
| O=C(CCc1ccc2n1[B-](F)(F)[N+]1=C(c3ccc[nH]3)C=CC1=C2)NCc1ccc(C(=O)NCCOCCOCCNCC(O)COc2cccc3ccccc23)cc1 (centres unmarked) [Propranolol-3-NB590] | – | – | NanoBRET Fold Response (DRD2, 0.1μM): 1.17; NanoBRET Fold Response (DRD2, 1μM): 1.09 |
| COc1ccc2c(n1)c(CCNC(C)=O)cn2CCNC(=O)CCc1ccc2n1[B-](F)(F)[N+]1=C(c3ccc[nH]3)C=CC1=C2 [Azamelatonin-1-NB590] | – | – | NanoBRET Fold Response (0.1μM tracer): 1.19; NanoBRET Fold Response (1μM tracer): 0.52 |
| O=C(CCOCCOCCOCCOCCNC(=O)CCc1ccc2n1[B-](F)(F)[N+]1=C(c3ccc[nH]3)C=CC1=C2)NCCCN1CCN(C2=Nc3ccccc3Oc3ccc(Cl)cc32)CC1 [Loxapine-a-2-NB590] | 1.97 | 1.62 | – |
| N#CN/C(=N\CCNC(=O)c1ccc(N)cc1)NCCCOc1cccc(CN2CCCCC2)c1 [Aminopotentidine (unmodified)] | – | – | NanoBRET Fold Response (DRD2, other tracers/Aminopotentidine (unmodified), 0.1μM): 1.53; NanoBRET Fold Response (DRD2, other tracers/Aminopotentidine (unmodified), 1μM): 1.51 |
| COc1ccccc1N1CCN(CCCCN2C(=O)c3ccc(CNC(=O)CCOCCOCCOCCOCCNC(=O)CCc4ccc5n4[B-](F)(F)[N+]4=C(c6ccc[nH]6)C=CC4=C5)cc3C2=O)CC1 [NAN-190-2-NB590] | 2.31 | 1.36 | – |
| CC(C)N(CC[C@H](c1ccccc1)c1cc(CCNC(=O)c2ccc(CNC(=O)CCc3ccc4n3[B-](F)(F)[N+]3=C(c5ccc[nH]5)C=CC3=C4)cc2)ccc1O)C(C)C [Tolterodine-BZ-NB590] | 1.34 | 1.78 | – |
| O=C(CCc1ccc2n1[B-](F)(F)[N+]1=C(c3ccc[nH]3)C=CC1=C2)NCCOCCOCCNC(=O)OCCOCCN1CCN(C2=Nc3ccccc3Sc3ccccc32)CC1 [Quetiapine-a-2-NB590] | 1.86 | 1.76 | – |
| CC(C)N(CC[C@H](c1ccccc1)c1cc(CCNC(=O)CCOCCOCCOCCOCCNC(=O)CCc2ccc3n2[B-](F)(F)[N+]2=C(c4ccc[nH]4)C=CC2=C3)ccc1O)C(C)C [Tolterodine-2-NB590] | 1.07 | 1.09 | – |
| CN(C)CCC=C1c2ccccc2CCc2ccc(C(=O)NCCNC(=O)CCOCCOCCOCCOCCNC(=O)CCc3ccc4n3[B-](F)(F)[N+]3=C(c5ccc[nH]5)C=CC3=C4)cc21 [Amitriptyline-a-2-NB590] | – | – | NanoBRET Fold Response (tracer at 0.1μM): 1.50; NanoBRET Fold Response (tracer at 1μM): 1.97 |
| Cc1cc2c(s1)Nc1ccccc1N=C2N1CCN(CCCNC(=O)CCOCCOCCOCCOCCNC(=O)CCc2ccc3n2[B-](F)(F)[N+]2=C(c4ccc[nH]4)C=CC2=C3)CC1 [Olanzapine-a-2-NB590] | 1.98 | 2.25 | – |
| N#CN=C(NCCCOc1cccc(CN2CCCCC2)c1)NCCNC(=O)CCOCCOCCOCCOCCNC(=O)CCc1ccc2n1[B-](F)(F)[N+]1=C(c3ccc[nH]3)C=CC1=C2 [Aminopotentidine-2-NB590] | 1.18 | 1.22 | – |
| Cc1nc2n(c(=O)c1CCN1CCC(c3noc4cc(F)ccc34)CC1)CCCC2OC(=O)NCCOCCOCCOCCOCCNC(=O)CCc1ccc2n1[B-](F)(F)[N+]1=C(c3ccc[nH]3)C=CC1=C2 (centres unmarked) [Risperidone-2-NB590] | 2.85 | 2.07 | – |
| CN(C)CCC=C1c2ccccc2CCc2ccc(C(=O)NCCNC(=O)CCOCCOCCOCCOCCNC(=O)CCc3ccc4n3[B-](F)(F)[N+]3=C(c5ccc[nH]5)C=CC3=C4)cc21 [Amitriptyline-b-2-NB590] | – | – | NanoBRET Fold Response (tracer at 0.1μM, listed as amitriptyline-b-2-NB590): 1.54 |
